# Experimental data from US20050234046A1 (Kalypsys, Inc., priority 2004, published 2005).
# pEC50: −log10 of the molar value.
# Legend:
# Assay in all cases: Transient transfection (transactivation) assay in CV-1 cells, GAL4-PPAR chimera, luciferase reporter
# Format in all cases: cell-based
# PPAR alpha = target: T1, PPAR alpha (Homo sapiens, UniProt Q07869)
# T1 construct: expressed in transfected cells; host or cells: CV-1 cells
# T1 sequence (Q07869 239-466 limits assumed): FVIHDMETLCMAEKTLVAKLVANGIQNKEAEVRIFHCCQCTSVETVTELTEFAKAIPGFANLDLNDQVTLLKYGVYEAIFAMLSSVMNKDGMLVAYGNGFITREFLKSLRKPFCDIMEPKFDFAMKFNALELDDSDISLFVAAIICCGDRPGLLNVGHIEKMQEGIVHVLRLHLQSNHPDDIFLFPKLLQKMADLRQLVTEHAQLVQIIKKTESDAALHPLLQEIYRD
# Summary of the method: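 EC50 and efficacy come from a luciferase read-out after 20-24 hours of compound exposure (vehicle 1% DMSO) in transiently transfected CV-1 cells. These cells express a GAL4-PPAR ligand-binding-domain chimera plus a reporter with four or five GAL4 binding sites, and are kept in phenol-red free DME with 5% delipidated calf serum.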
# PPAR delta = target: T2, PPAR delta (Homo sapiens, UniProt Q03181)
# T2 construct: expressed in transfected cells; host or cells: CV-1 cells
# T2 sequence (Q03181 211-439 limits assumed): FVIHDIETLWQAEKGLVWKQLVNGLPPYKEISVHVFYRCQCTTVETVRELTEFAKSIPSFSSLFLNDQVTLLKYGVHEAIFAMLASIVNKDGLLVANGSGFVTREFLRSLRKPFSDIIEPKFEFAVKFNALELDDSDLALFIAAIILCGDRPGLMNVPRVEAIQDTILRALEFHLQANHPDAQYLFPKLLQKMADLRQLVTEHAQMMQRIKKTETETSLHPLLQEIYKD
# PPAR gamma = target: T3, PPAR gamma (Homo sapiens, UniProt P37231)
# T3 construct: expressed in transfected cells; host or cells: CV-1 cells
# T3 sequence (P37231 238-503 limits assumed): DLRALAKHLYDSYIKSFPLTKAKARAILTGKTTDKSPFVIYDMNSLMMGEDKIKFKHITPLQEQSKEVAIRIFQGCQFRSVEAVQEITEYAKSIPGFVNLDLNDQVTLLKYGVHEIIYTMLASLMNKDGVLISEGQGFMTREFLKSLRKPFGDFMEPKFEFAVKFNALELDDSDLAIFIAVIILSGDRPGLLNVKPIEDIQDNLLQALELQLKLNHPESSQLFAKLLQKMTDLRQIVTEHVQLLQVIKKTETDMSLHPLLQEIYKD
SMILES,pEC50 (PPAR alpha),pEC50 (PPAR delta),pEC50 (PPAR gamma)
Cc1cc(CC(=O)O)cc(S(=O)(=O)N2CCN(c3ccc(C(F)(F)F)c(F)c3)[C@@H](C)C2)c1 [Example 219],4.00 to 5.30,> 5.30,4.00 to 5.30
"Cc1cc(CC(=O)O)cc(S(=O)(=O)N2CCN(c3ccc(OC(F)(F)F)cc3)CC2)c1 [Example 223, {3-Methyl-5-[4-(4-trifluoromethoxy-phenyl)-piperazine-1-sulfonyl]-phenyl}-acetic acid]",4.00 to 5.30,> 5.30,4.00 to 5.30
"Cc1cc(CC(=O)O)cc(S(=O)(=O)N2CCN(c3ccc(OC(F)(F)F)cc3)[C@@H](C)C2)c1 [Example 224, {3-Methyl-5-[3-(s)-methyl-4-(4-trifluoromethoxy-phenyl)-piperazine-1-sulfonyl]-phenyl}-acetic acid]",4.00 to 5.30,> 5.30,4.00 to 5.30
"O=C(O)Cc1c(F)ccc(S(=O)(=O)N2CCN(c3ccc(C(F)(F)F)cn3)CC2)c1F [Example 230, {2,6-Difluoro-3-[4-(5-trifluoromethyl-pyridin-2-yl)-piperazine-1-sulfonyl]-phenyl}-acetic acid]",4.00 to 5.30,> 5.30,4.00 to 5.30
"C[C@@H]1CN(c2ccc(OC(F)(F)F)cc2)C[C@H](C)N1S(=O)(=O)c1ccc(F)c(CC(=O)O)c1F [Example 232, {3-[2,6-Dimethyl-4-(4-trifluoromethoxy-phenyl)-piperazine-1-sulfonyl]-2,6-difluoro-phenyl}-acetic acid]",< 4.00,> 5.30,< 4.00
"Cc1cc(CC(=O)O)cc(S(=O)(=O)N2C3CCC2CN(c2ccc(OC(F)(F)F)cc2)C3)c1 [Example 233, {3-Methyl-5-[3-(4-trifluoromethoxy-phenyl)-3,8-diaza-bicyclo[3.2.1]octane-8-sulfonyl]-phenyl}-acetic acid]",4.00 to 5.30,> 5.30,4.00 to 5.30

# The next lines start with the values.
pEC50 (PPAR alpha),pEC50 (PPAR delta),pEC50 (PPAR gamma),SMILES
> 5.30,> 5.30,4.00 to 5.30,"C[C@H]1CN(S(=O)(=O)c2cccc(CC(=O)O)c2)CCN1c1ccc(C(F)(F)F)c(F)c1 [Example 218, {3-[4-(3-Fluoro-4-trifluorometbyl-phenyl)-3-(S)-methyl-piperazine-1-sulfonyl]-phenyl}-acetic acid]"
4.00 to 5.30,> 5.30,< 4.00,"C[C@@H]1CN(c2ccc(C(F)(F)F)cn2)C[C@H](C)N1S(=O)(=O)c1cccc(CC(=O)O)c1 [Example 220, {3-[2,6-Dimethyl-4-(5-trifluoromethyl-pyridin-2-yl)-piperazine-1-sulfonyl]-phenyl}-acetic acid]"
4.00 to 5.30,> 5.30,4.00 to 5.30,"C[C@H]1CN(S(=O)(=O)c2cccc(CC(=O)O)c2)CCN1c1ccc(OC(F)(F)F)cc1 [Example 221, {3-[3-(s)-Methyl-4-(4-trifluoromethoxy-phenyl)-piperazine-1-sulfonyl]-phenyl}-acetic acid]"
4.00 to 5.30,> 5.30,< 4.00,Cc1cc(CC(=O)O)cc(S(=O)(=O)N2[C@H](C)CN(c3ccc(C(F)(F)F)c(F)c3)C[C@@H]2C)c1 [Example 222]
4.00 to 5.30,> 5.30,> 5.30,Cc1cc(CC(=O)O)cc(S(=O)(=O)N2CCN(c3ccc(C(F)(F)F)cn3)CC2)c1 [Example 225]
4.00 to 5.30,> 5.30,4.00 to 5.30,"C[C@H]1CN(c2ccc(OC(F)(F)F)cc2)CCN1S(=O)(=O)c1cccc(CC(=O)O)c1 [Example 226, {3-[2-(s)-Methyl-4-(4-trifluoromethoxy-phenyl)-piperazine-1-sulfonyl]-phenyl}-acetic acid]"
4.00 to 5.30,> 5.30,> 5.30,"C[C@@H]1CN(S(=O)(=O)c2cccc(CC(=O)O)c2)C[C@H](C)N1c1ccc(C(F)(F)F)cn1 [Example 227, 2-(3-(-3,5-Dimethyl-4-(5-(trifluoromethyl)pyridine-2-yl)piperazin-1-ylsulfonyl)phenyl)acetic acid]"
4.00 to 5.30,> 5.30,> 5.30,"Cc1cc(CC(=O)O)cc(S(=O)(=O)N2C[C@@H](C)N(c3ccc(C(F)(F)F)cn3)[C@@H](C)C2)c1 [Example 228, 2-(3-(-3,5-Dimethyl-4-(5-(trifluoromethyl)pyridine-2-yl)piperazin-1-ylsulfonyl)-5-methylphenyl)acetic acid]"
< 4.00,> 5.30,< 4.00,"Cc1cc(CC(=O)O)cc(S(=O)(=O)N2[C@H](C)CN(c3ccc(C(F)(F)F)cn3)C[C@@H]2C)c1 [Example 229, {3-[2,6-Dimethyl-4-(5-trifluoromethyl-pyridin-2-yl)-piperazine-1-sulfonyl]-5-methyl-phenyl}-acetic acid]"
< 4.00,4.00 to 5.30,< 4.00,"C[C@@H]1CN(c2ccc(C(F)(F)F)cn2)C[C@H](C)N1S(=O)(=O)c1ccc(F)c(CC(=O)O)c1F [Example 231, {3-[2,6-Dimethyl-4-(5-trifluoromethyl-pyridin-2-yl)-piperazine-1-sulfonyl]-2,6-difluoro-phenyl}-acetic acid]"
